# Patent US11591341B2 (ALIGOS THERAPEUTICS, INC., priority 2019, dated 2023)
# System: HBV
# Assay: HBV-DNA Antiviral Assay Using HepG2.117 Cells (intracellular HBV DNA by qPCR)
# Type: cell-based, hepatitis B virus (genotype D)
# Settings: Hepatitis B virus, HepG2.117
# Procedure, shortened: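 Endpoint: qPCR copy number of intracellular HBV DNA after 3-day compound exposure, with inhibition set relative to the 2% DMSO control. The cells were doxycycline-free HepG2.117 carrying a Tet-off genotype D genome, dosed at nine 4-fold dilutions. A duplicate plate gave ATP-based viability (CC50).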
row,SMILES,EC50 [nM]
1,"COc1ccc([C@@H](C)NC(=O)c2c3n(c(=O)n2-c2ccc(OC4CC4)cc2)C[C@H](C)N(C(=O)c2ccc(Br)c(Cl)c2)C3)cc1 (racemic) [Example 450, (6SR)-7-(4-bromo-3-chloro-benzoyl)-2-[4-(cyclopropoxy)phenyl]-N-[(1R)-1-(4-methoxyphenyl)ethyl]-6-methyl-3-oxo-6,8-dihydro-5H-imidazo[1,5-a]pyrazine-1-carobxamide]",< 100
2,"CC1Cn2c(c(C(=O)NCc3ccccc3-c3ncccn3)n(-c3ccc(OC4CC4)cc3)c2=O)CN1C(=O)c1ccc(Br)c(C#N)c1 (racemic) [Example 451, rac-(6R)-7-(4-bromo-3-cyano-benzoyl)-2-[4-(cyclopropoxy)phenyl]-6-methyl-3-oxo-N-[(2-pyrimidin-2-ylphenyl)methyl]-6,8-dihydro-5H-imidazo[1,5-a]pyrazine-1-carboxamide]",100 to 500
3,"C[C@H]1Cn2c(c(C(=O)NCc3ccccc3-c3ncccn3)n(-c3ccc(OC4CC4)cc3)c2=O)CN1C(=O)c1ccc(Br)c(C#N)c1 (racemic) [Example 452, rac-(6S)-7-(4-bromo-3-cyano-benzoyl)-2-[4-(cyclopropoxy)phenyl]-6-methyl-3-oxo-N-[(2-pyrimidin-2-ylphenyl)methyl]-6,8-dihydro-5H-imidazo[1,5-a]pyrazine-1-carboxamide]",< 100
4,"C[C@@H](NC(=O)c1c2n(c(=O)n1-c1ccccc1)CCN(C(=O)c1ccc(Br)c(Cl)c1)C2)c1ccccc1 (stereo in doubt) [Example 37, 7-(4-bromo-3-chloro-benzoyl)-3-oxo-2-phenyl-N-[rac-(1R)-1-phenylethyl]-6,8-dihydro-5H-imidazo[1,5-a]pyrazine-1-carboxamide]",500 to 5000
5,"C[C@H](NC(=O)c1c2n(c(=O)n1-c1ccccc1)CCN(C(=O)c1ccc(Br)c(Cl)c1)C2)c1ccccc1 (stereo in doubt) [Example 38, 7-(4-bromo-3-chloro-benzoyl)-3-oxo-2-phenyl-N-[rac-(1S)-1-phenylethyl]-6,8-dihydro-5H-imidazo[1,5-a]pyrazine-1-carboxamide]",500 to 5000
6,"COc1ccc(-n2c(C(=O)N[C@H](C)c3ccccc3)c3n(c2=O)CCN(C(=O)c2ccc(Cl)c(Cl)c2)C3)cc1 (stereo in doubt) [Example 68, 7-(3,4-dichlorobenzoyl)-2-(4-methoxyphenyl)-3-oxo-N-[rac-(1R)-1-phenylethyl]-6,8-dihydro-5H-imidazo[1,5-a]pyrazine-1-carboxamide]",500 to 5000
7,"COc1ccc(-n2c(C(=O)N[C@@H](C)c3ccccc3)c3n(c2=O)CCN(C(=O)c2ccc(Br)c(Cl)c2)C3)cc1 (stereo in doubt) [Example 69, 7-(4-bromo-3-chloro-benzoyl)-2-(4-methoxypehnyl)-3-oxo-N-[rac-(1S)-1-phenylethyl]-6,8-dihydro-5H-imidazo[1,5-a]pyrazine-1-carboxamide]",100 to 500
8,"COc1ccc(-n2c(C(=O)N[C@@H](C)c3ccccc3)c3n(c2=O)CCN(C(=O)c2ccc(Cl)c(Cl)c2)C3)cc1 (stereo in doubt) [Example 70, 7-(3,4-dichlorobenzoyl)-2-(4-methoxyphenyl)-3-oxo-N-[rac-(1S)-1-phenylethyl]-6,8-dihydro-5H-imidazo[1,5-a]pyrazine-1-carboxamide]",500 to 5000
9,"COc1ccc([C@@H](C)NC(=O)c2c3n(c(=O)n2-c2ccc(OC)cc2)CCN(C(=O)c2ccc(Br)c(Cl)c2)C3)cc1 (stereo in doubt) [Example 72, 7-(4-bromo-3-chloro-benzoyl)-2-(4-methoxyphenyl)-3-oxo-N-[rac-(1R)-1-(4-methoxyphenyl)ethyl]-6,8-dihydro-5H-imidazo[1,5-a]pyrazine-1-carboxamide]",500 to 5000
10,"COc1ccc([C@H](C)NC(=O)c2c3n(c(=O)n2-c2ccc(OC)cc2)CCN(C(=O)c2ccc(Br)c(Cl)c2)C3)cc1 (stereo in doubt) [Example 73, 7-(4-bromo-3-chloro-benzoyl)-2-(4-methoxyphenyl)-3-oxo-N-[rac-(1S)-1-(4-methoxyphenyl)ethyl]-6,8-dihydro-5H-imidazo[1,5-a]pyrazine-1-carboxamide]",< 100
11,"COc1ccc(-n2c(C(=O)N[C@H](C)c3ccccc3)c3n(c2=O)CCN(C(=O)c2ccc(Br)c(Cl)c2)C3)cc1 (stereo in doubt) [Example 82, 7-(4-bromo-3-chloro-benzoyl)-2-(4-methoxyphenyl)-3-oxo-N-[rac-(1R)-1-phenylethyl]-6,8-dihydro-5H-imidazo[1,5-a]pyrazine-1-carboxamide]",100 to 500
12,"C[C@@H]1CN(Cc2ccccc2)C(=O)c2c3n(c(=O)n2C1)CCN(C(=O)c1ccc(Br)c(Cl)c1)C3 (stereo in doubt) [Example 97, rac-(11R)-13-benzyl-4-(4-bromo-3-chloro-benzoyl)-11-methyl-4,7,9,13-tetrazatricyclo[7.5.0.0^2,7]tetradec-1-ene-8.14-dione]",500 to 5000
13,"C[C@H]1CN(Cc2ccccc2)C(=O)c2c3n(c(=O)n2C1)CCN(C(=O)c1ccc(Br)c(Cl)c1)C3 (stereo in doubt) [Example 98, rac-((1S)-13-benzyl-4-(4-bromo-3-chloro-benzoyl)-11-methyl-4,7,9,13-tetrazatricyclo[7.5.0.0^2,7]tetradec-1-ene-8.14-dione]",500 to 5000
14,"COc1ccc(-n2c(C(=O)N[C@@H]3CCc4cc(OC)ccc43)c3n(c2=O)CCN(C(=O)c2ccc(Br)c(Cl)c2)C3)cc1 (stereo in doubt) [Example 99, 7-(4-bromo-3-chloro-benozyl)-2-(4-methoxyphenyl)-3-oxo-N-[rac-(1R)-5-methoxyindazin-1-yl]-6,8-dihydro-5H-imidazo[1,5-a]pyrazine-1-carboxamide]",500 to 5000
15,"COc1ccc(-n2c(C(=O)N[C@H]3CCc4cc(OC)ccc43)c3n(c2=O)CCN(C(=O)c2ccc(Br)c(Cl)c2)C3)cc1 (stereo in doubt) [Example 100, 7-(4-bromo-3-chloro-benzoyl)-2-(4-methoxyphenyl)-3-oxo-N-[rac-(1S)-5-methoxyindazin-1-yl]-6,8-dihydro-5H-imidazo[1,5-a]pyrazine-1-carboxamide]",100 to 500
16,"C[C@H](NC(=O)c1c2n(c(=O)n1C)CCN(C(=O)c1ccc(Br)c(Cl)c1)C2)c1ccccc1 (stereo in doubt) [Example 112, 7-(4-bromo-3-chloro-benzoyl)-2-methyl-3-oxo-N-[rac-(1S)-1-phenylethyl]-6,8-dihydro-5H-imidazo[1,5-a]pyrazine-1-carboxamide]",> 5000
17,"C[C@@H](NC(=O)c1c2n(c(=O)n1C)CCN(C(=O)c1ccc(Br)c(Cl)c1)C2)c1ccccc1 (stereo in doubt) [Example 113, 7-(4-bromo-3-chloro-benzoyl)-2-methyl-3-oxo-N-[rac-(1R)-1-phenylethyl]-6,8-dihydro-5H-imidazo[1,5-a]pyrazine-1-carboxamide]",500 to 5000
18,"C[C@H](NC(=O)c1c2n(c(=O)n1-c1ccc(OCC(F)(F)F)cc1)CCN(C(=O)c1ccc(Br)c(Cl)c1)C2)c1ccccc1 (stereo in doubt) [Example 127, 7-(4-bromo-3-chloro-benzoyl)-3-oxo-N-[rac-(1S)-1-phenylethyl]-2-[4-(2,2,2-trifluoroethoxy)phenyl]-6,8-dihydro-5H-imidazo[1,5-a]pyrazine-1-carboxamide]",500 to 5000
19,"C[C@@H](NC(=O)c1c2n(c(=O)n1-c1ccc(OCC(F)(F)F)cc1)CCN(C(=O)c1ccc(Br)c(Cl)c1)C2)c1ccccc1 (stereo in doubt) [Example 128, 7-(4-bromo-3-chloro-benzoyl)-3-oxo-N-[rac-(1R)-1-phenylethyl]-2-[4-(2,2,2-trifluoroethoxy)phenyl]-6,8-dihydro-5H-imidazo[1,5-a]pyrazine-1-carboxamide]",100 to 500
20,"CC(C)Oc1ccc(-n2c(C(=O)N[C@@H](C)c3ccccc3)c3n(c2=O)CCN(C(=O)c2ccc(Cl)c(Cl)c2)C3)cc1 (stereo in doubt) [Example 129, 7-(3,4-dichlorobenzoyl)-2-(4-isopropoxyphenyl)-3-oxo-N-[rac-(1S)-1-phenylethyl]-6,8-dihydro-5H-imidazo[1,5-a]pyrazine-1-carboxamide]",500 to 5000
21,"CC(C)Oc1ccc(-n2c(C(=O)N[C@H](C)c3ccccc3)c3n(c2=O)CCN(C(=O)c2ccc(Cl)c(Cl)c2)C3)cc1 (stereo in doubt) [Example 130, 7-(3,4-dichlorobenzoyl)-2-(4-isopropoxyphenyl)-3-oxo-N-[rac-(1R)-1-phenylethyl]-6,8-dihydro-5H-imidazo[1,5-a]pyrazine-1-carboxamide]",100 to 500
22,"C[C@H](NC(=O)c1c2n(c(=O)n1-c1ccc(OC3CCC3)cc1)CCN(C(=O)c1ccc(Br)c(Cl)c1)C2)c1ccccc1 (stereo in doubt) [Example 136, 7-(4-bromo-3-chloro-benzoyl)-2-[4-(cyclobutoxy)phenyl]-3-oxo-N-[rac-(1S)-1-phenylethyl]-6,8-dihydro-5H-imidazo[1,5-a]pyrazine-1-carboxamide]",100 to 500
23,"C[C@@H](NC(=O)c1c2n(c(=O)n1-c1ccc(OC3CCC3)cc1)CCN(C(=O)c1ccc(Br)c(Cl)c1)C2)c1ccccc1 (stereo in doubt) [Example 137, 7-(4-bromo-3-chloro-benzoyl)-2-[4-(cyclobutoxy)phenyl]-3-oxo-N-[rac-(1R)-1-phenylethyl]-6,8-dihydro-5H-imidazo[1,5-a]pyrazine-1-carboxamide]",100 to 500
24,"O=C(c1ccc(Br)c(Cl)c1)N1CCn2c(c3n(c2=O)C[C@H](CO)CN(Cc2ccccc2)C3=O)C1 (stereo in doubt) [Example 146, rac-(11R)-13-benzyl-4-(4-bromo-3-chloro-benzoyl)-11-(hydroxymethyl)-4,7,9,13-tetrazatricyclo[7.5.0.0^2,7]tetradec-1-ene-8,14-dione]",100 to 500
25,"O=C(c1ccc(Br)c(Cl)c1)N1CCn2c(c3n(c2=O)C[C@@H](CO)CN(Cc2ccccc2)C3=O)C1 (stereo in doubt) [Example 147, rac-(11S)-13-benzyl-4-(4-bromo-3-chloro-benzoyl)-11-(hydroxymethyl)-4,7,9,13-tetrazatricyclo[7.5.0.0^2,7]tetradec-1-ene-8,14-dione]",100 to 500
